Assay [1] addresses T1, Biotin Protein Ligase (MtBPL) (Mycobacterium tuberculosis, UniProt I6YFP0).
T1 construct: gene birA; 266 amino acids, hexahistidine tag at N-terminus
As to the kind of experiment: ITC (VP-ITC, […]°C). It is filed as binding.

Assay [2] concerns the target Mycobacterium tuberculosis Biotin Protein Ligase (Mycobacterium tuberculosis) (UniProt I6YFP0).

This passage reports Kd and Km for BCCP in the MtBPL catalysed incorporation of [14C]-biotin into BCCP (steady state kinetics, Michaelis-Menten fit) results from paper PMC2384007 (PLoS ONE, 2008).

T1 sequence (I6YFP0 whole entry, looked up): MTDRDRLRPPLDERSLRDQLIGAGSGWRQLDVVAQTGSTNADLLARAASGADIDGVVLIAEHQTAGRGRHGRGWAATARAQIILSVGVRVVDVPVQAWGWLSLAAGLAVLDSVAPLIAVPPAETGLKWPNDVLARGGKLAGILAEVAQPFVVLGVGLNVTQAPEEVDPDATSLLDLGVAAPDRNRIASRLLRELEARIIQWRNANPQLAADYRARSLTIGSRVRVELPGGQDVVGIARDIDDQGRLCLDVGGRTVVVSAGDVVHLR
Sequence of Mycobacterium tuberculosis Biotin Protein Ligase (Mycobacterium tuberculosis) (I6YFP0 whole entry): as the sequence (I6YFP0 whole entry, looked up) above

The compound `Nc1ncnc2c1ncn2[C@@H]1O[C@H](COP(=O)(O)OC(=O)CCCC[C@@H]2SC[C@@H]3NC(=O)N[C@@H]32)[C@@H](O)[C@H]1O` [bio-5′-AMP] returned a Kd in assay [1] of 1360 nM.
As for “biotin carboxyl carrier protein (BCCP) domain of M. tuberculosis acetyl CoA carboxylase (domain or fragment)”, the Km for BCCP in the MtBPL catalysed incorporation of [14C]-biotin into BCCP (steady state kinetics, Michaelis-Menten fit) in assay [2] stood at 5.2 µM.

As usually defined, the Kd is a measure of binding affinity in units of concentration. Read a high Kd as weaker binding.
